Test results from the supplement of paper PMC10331698.
± gives the standard deviation of the averaged measurements.

Assays:
Test in all cases: level (log10 ratio to DMSO vehicle control); higher = higher biomarker level / cell amount than vehicle control
[1] = compound: CCOC(=O)CC(=O)C(F)(F)C(F)(F)F [Ethyl pentafluoropropionyl acetate] (in DMSO)
Protocol: (§1)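 BioMAP Diversity Plus panel of 12 human primary cell co-culture systems (3C, 4H, LPS, SAg, BT, BF4T, BE3C, CASM3C, HDF3CGF, KF3CT, MyoF, Mphg). Compounds were added 1 h before stimulation and left for 24 h (MyoF 48 h; BT 72 h for soluble read-outs or 6 d for IgG). Biomarkers were read by ELISA, cytotoxicity by SRB, PBMC viability and proliferation by Alamar Blue. Each well value was divided by the mean of 8 DMSO control wells on the same plate and log10 transformed; duplicate blinded samples were tested at 4 concentrations.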

[2] = compound: CN(C(=O)C(F)(F)C(F)(F)C(F)(F)F)[Si](C)(C)C [N-Methyl-N-trimethylsilylheptafluorobutyramide] (in DMSO)
Protocol: as §1

Perfluorononanoic acid = compound: O=C(O)C(F)(F)C(F)(F)C(F)(F)C(F)(F)C(F)(F)C(F)(F)C(F)(F)C(F)(F)F [Perfluorononanoic acid] (in DMSO)
Protocol: as §1

[3] = compound: O=C(O)C(F)(OC(F)(F)C(F)(F)C(F)(F)F)C(F)(F)F [Ammonium perfluoro-2-methyl-3-oxahexanoate] (in Water)
Protocol: as §1

[4] = compound: O=C(O)CCC(F)(C(F)(F)F)C(F)(F)F [4,4-bis(Trifluoromethyl)-4-fluoropropanoic acid] (in DMSO)
Protocol: as §1

[5] = compound: OCC(F)(F)OC(F)(F)C(F)(F)OC(F)(F)C(F)(F)OC(F)(F)CO [1H,1H,11H,11H-Perfluorotetraethylene glycol] (in DMSO)
Protocol: as §1

Test System | level (log10) ([1]; 6700 nM) | level (log10) ([1]; 20000 nM) | level (log10) ([1]; 60000 nM) | level (log10) ([2]; 6700 nM) | level (log10) ([2]; 20000 nM) | level (log10) ([2]; 60000 nM) | level (log10) (Perfluorononanoic acid; 6700 nM) | level (log10) (Perfluorononanoic acid; 20000 nM) | level (log10) ([3]; 6700 nM) | level (log10) ([3]; 20000 nM) | level (log10) ([3]; 60000 nM) | level (log10) ([4]; 6700 nM) | level (log10) ([4]; 20000 nM) | level (log10) ([4]; 60000 nM) | level (log10) ([5]; 6700 nM) | level (log10) ([5]; 20000 nM) | level (log10) ([5]; 60000 nM)
LPS:CD142/Tissue Factor | -0.01 ± 0.021 | -0.032 ± 0.028 | -0.002 ± 0.033 | 0.015 ± 0.065 | 0.0255 ± 0.1 | -0.0085 ± 0.1 | 0.01 ± 0.016 | -0.001 ± 0.02 | 0.0885 ± 0.064 | 0.0845 ± 0.028 | 0.075 ± 0.045 | 0.045 ± 0.031 | 0.038 ± 0.059 | 0.02 ± 0.051 | -0.0455 ± 0.016 | -0.0665 ± 0.0064 | -0.0575 ± 0.07
LPS:CXCL8/IL-8 | -0.022 ± 0.025 | -0.01 ± 0.0071 | -0.0005 ± 0.023 | 0.008 ± 0.0028 | 0.0245 ± 0.018 | 0.016 ± 0.052 | 0.024 ± 0.013 | 0.0355 ± 0.0092 | 0.023 ± 0.031 | 0.0895 ± 0.016 | 0.131 ± 0.017 | 0.011 ± 0.0028 | 0.007 ± 0.02 | 0.0135 ± 0.054 | -0.0025 ± 0.00071 | -0.01 ± 0.0057 | -0.02 ± 0.011
LPS:IL-1alpha | 0 ± 0.034 | -0.0335 ± 0.025 | 0.0115 ± 0.019 | -0.004 ± 0.041 | 0.017 ± 0.0071 | 0.02 ± 0.0028 | -0.0315 ± 0.0064 | -0.03 ± 0.014 | 0.0325 ± 0.04 | 0.0475 ± 0.015 | 0.019 ± 0.062 | 0.009 ± 0.072 | 0.0215 ± 0.022 | 0.0215 ± 0.032 | -0.02 ± 0.024 | -0.017 ± 0.0057 | -0.006 ± 0.042
LPS:M-CSF | -0.021 ± 0.011 | 0.0085 ± 0.019 | 0.012 ± 0.088 | -0.0075 ± 0.0092 | -0.0135 ± 0.012 | -0.0045 ± 0.079 | -0.001 ± 0.045 | 0.035 ± 0.024 | -0.02 ± 0.024 | -0.009 ± 0.016 | -0.0045 ± 0.005 | -0.0345 ± 0.0021 | -0.0145 ± 0.029 | -0.0245 ± 0.00071 | 0.0105 ± 0.03 | -0.0025 ± 0.036 | 0.0355 ± 0.011
LPS:SRB | 0.0015 ± 0.0021 | 0 ± 0.0028 | -0.004 ± 0.0085 | 0.0045 ± 0.012 | 0.0045 ± 0.0078 | 0 ± 0.0028 | -0.0065 ± 0.00071 | 0.0045 ± 0.0078 | -0.009 ± 0.0028 | -0.0075 ± 0.00071 | -0.009 ± 0.0014 | -0.0045 ± 0.0064 | -0.0035 ± 0.00071 | 0.0135 ± 0.0092 | -0.0175 ± 0.0078 | -0.0255 ± 0.013 | -0.086 ± 0.013
LPS:sPGE2 | 0.0175 ± 0.012 | -0.0005 ± 0.013 | 0.034 ± 0.0014 | 0.0035 ± 0.011 | 0.0095 ± 0.044 | -0.023 ± 0.057 | -0.0695 ± 0.00071 | -0.144 ± 0.0064 | 0.093 ± 0.061 | 0.0575 ± 0.039 | 0.0765 ± 0.018 | -0.0445 ± 0.019 | -0.018 ± 0.033 | 0.011 ± 0.0085 | 0.032 ± 0.034 | 0.0965 ± 0.0078 | 0.056 ± 0.011
LPS:sTNF-alpha | 0.0125 ± 0.015 | 0.0095 ± 0.0064 | 0.0085 ± 0.012 | -0.004 ± 0.0042 | -0.002 ± 0.011 | -0.0065 ± 0.015 | -0.0115 ± 0.028 | 0.0115 ± 0.025 | -0.068 ± 0.021 | -0.0375 ± 0.043 | -0.0225 ± 0.033 | -0.046 ± 0.045 | -0.013 ± 0.05 | -0.003 ± 0.018 | 0.0035 ± 0.0078 | 0.002 ± 0.0085 | -0.082 ± 0.0099
SAg:CCL2/MCP-1 | -0.0005 ± 0.011 | -0.0225 ± 0.0078 | 0.011 ± 0.0085 | -0.0135 ± 0.0078 | -0.012 ± 0.018 | -0.0005 ± 0.026 | -0.0015 ± 0.0035 | 0.0555 ± 0.013 | -0.0245 ± 0.04 | 0.004 ± 0.017 | 0.0305 ± 0.059 | 0 ± 0.033 | -0.0125 ± 0.00071 | -0.0125 ± 0.025 | -0.023 ± 0.038 | -0.0395 ± 0.03 | -0.094 ± 0.024
SAg:CD38 | -0.0055 ± 0.049 | 0.019 ± 0.045 | -0.0175 ± 0.0021 | -0.0015 ± 0.019 | -0.009 ± 0.0014 | 0.0115 ± 0.023 | 0.0155 ± 0.069 | 0.0205 ± 0.056 | 0.003 ± 0.011 | 0.008 ± 0.0085 | -0.0055 ± 0.019 | -0.02 ± 0.047 | -0.008 ± 0.013 | -0.0025 ± 0.019 | -0.0035 ± 0.049 | -0.0255 ± 0.023 | -0.0895 ± 0.033
SAg:CD40 | 0.005 ± 0.0028 | -0.0205 ± 0.0021 | -0.0275 ± 0.0035 | -0.0185 ± 0.059 | -0.009 ± 0.0042 | -0.0075 ± 0.00071 | -0.0285 ± 0.044 | -0.057 ± 0.02 | -0.019 ± 0.013 | -0.017 ± 0.0014 | -0.0555 ± 0.077 | -0.0495 ± 0.073 | -0.0245 ± 0.077 | -0.055 ± 0.089 | 0.011 ± 0.03 | -0.035 ± 0.044 | -0.132 ± 0.043
SAg:CD62E/E-Selectin | -0.0005 ± 0.018 | -0.006 ± 0.0028 | 0.004 ± 0.033 | -0.017 ± 0.0085 | -0.017 ± 0.017 | -0.0225 ± 0.021 | -0.01 ± 0.03 | 0.0315 ± 0.039 | 0.036 ± 0.0014 | 0.022 ± 0.013 | 0.057 ± 0.0028 | -0.011 ± 0.011 | -0.0025 ± 0.021 | -0.013 ± 0.0028 | -0.009 ± 0.042 | -0.0455 ± 0.0078 | -0.276 ± 0.062
SAg:CD69 | 0.0075 ± 0.026 | -0.0015 ± 0.029 | 0.019 ± 0.05 | -0.024 ± 0.0014 | 0.0015 ± 0.0078 | -0.0025 ± 0.015 | -0.035 | -0.0335 ± 0.015 | -0.046 ± 0.0071 | -0.0265 ± 0.019 | -0.0205 ± 0.005 | -0.0395 ± 0.0021 | -0.0205 ± 0.00071 | -0.0515 ± 0.046 | -0.0095 ± 0.1 | -0.0275 ± 0.066 | -0.162 ± 0.061
SAg:CXCL8/IL-8 | -0.023 ± 0.016 | -0.0475 ± 0.032 | -0.007 ± 0.085 | -0.0015 ± 0.018 | -0.0385 ± 0.019 | -0.007 ± 0.035 | -0.0165 ± 0.029 | 0.0095 ± 0.036 | 0.103 ± 0.0085 | 0.099 ± 0.0085 | 0.167 ± 0.047 | 0.027 ± 0.035 | 0.0095 ± 0.064 | 0.019 ± 0.079 | -0.0225 ± 0.069 | -0.061 ± 0.072 | -0.209 ± 0.005
SAg:CXCL9/MIG | -0.001 ± 0.011 | -0.015 ± 0.0099 | 0.0065 ± 0.0021 | 0.007 ± 0.0057 | -0.009 ± 0.0014 | -0.0135 ± 0.0078 | 0.005 ± 0.017 | -0.004 ± 0.013 | -0.006 ± 0.0085 | 0.001 ± 0.014 | 0.001 ± 0.028 | 0.0015 ± 0.0064 | 0.008 ± 0.0042 | 0.0035 ± 0.00071 | -0.0095 ± 0.005 | 0.0095 ± 0.0035 | 0.015 ± 0.0071
SAg:PBMC Cytotoxicity | -0.0055 ± 0.032 | -0.005 ± 0.025 | -0.0015 ± 0.021 | -0.0155 ± 0.00071 | 0.011 ± 0.014 | 0.011 ± 0.025 | 0.006 ± 0.018 | 0.015 ± 0.013 | -0.011 ± 0.013 | -0.024 ± 0.013 | -0.0035 ± 0.0064 | 0.004 ± 0.0042 | -0.0015 ± 0.0092 | 0.008 ± 0.027 | -0.023 ± 0.034 | 0.008 ± 0.016 | -0.002 ± 0.033
SAg:Proliferation | 0.001 ± 0.065 | -0.004 ± 0.025 | 0.0315 ± 0.047 | 0.0395 ± 0.015 | 0.0565 ± 0.028 | 0.0635 ± 0.088 | 0.0075 ± 0.056 | 0.0035 ± 0.0092 | -0.0005 ± 0.028 | -0.043 ± 0.028 | -0.0265 ± 0.049 | 0.007 ± 0.051 | -0.03 ± 0.044 | 0.0375 ± 0.053 | -0.0355 ± 0.074 | -0.0455 ± 0.00071 | -0.126 ± 0.016
SAg:SRB | 0 ± 0.0057 | 0.004 | -0.003 ± 0.02 | 0.0055 ± 0.013 | 0.013 ± 0.0042 | 0.008 ± 0.0099 | -0.01 ± 0.0085 | -0.002 ± 0.0099 | -0.019 ± 0.0042 | -0.01 ± 0.0014 | -0.0285 ± 0.0021 | -0.0035 ± 0.0078 | 0.006 ± 0.0042 | 0.003 ± 0.016 | -0.008 ± 0.025 | -0.0175 ± 0.021 | -0.045 ± 0.021
